According to patent US11053204B2, “Pyrimidinyloxy benzene derivatives as herbicides” (FMC Corporation, priority 2015, dated 2021):

Legend:
Assay type in all cases: in vivo
[1] = system: Italian ryegrass (Lolium multiflorum); assay: Test A preemergence, visual injury rating; conditions: 0 to 100 scale (0 no effect, 100 complete control)
Outline: (§1)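 Compounds in non-phytotoxic solvent with surfactant applied as soil spray preemergence, or postemergence to plants 2-10 cm at one- to two-leaf stage, in loam/sand. After approximately 10 days in greenhouse, injury rated visually versus untreated controls, 0 (no effect) to 100 (complete control).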

[2] = system: barnyardgrass (Echinochloa crus-galli); assay: Test A preemergence, visual injury rating; conditions: 0 to 100 scale (0 no effect, 100 complete control)
Outline: as §1

[3] = system: giant foxtail (Setaria faberii); assay: Test A preemergence, visual injury rating; conditions: 0 to 100 scale (0 no effect, 100 complete control)
Outline: as §1

[4] = system: kochia (Kochia scoparia); assay: Test A preemergence, visual injury rating; conditions: 0 to 100 scale (0 no effect, 100 complete control)
Outline: as §1

[5] = system: pigweed (Amaranthus retroflexus); assay: Test A preemergence, visual injury rating; conditions: 0 to 100 scale (0 no effect, 100 complete control)
Outline: as §1

[6] = system: ragweed (common ragweed, Ambrosia elatior); assay: Test A preemergence, visual injury rating; conditions: 0 to 100 scale (0 no effect, 100 complete control)
Outline: as §1

[7] = system: Italian ryegrass (Lolium multiflorum); assay: Test A postemergence, visual injury rating; conditions: 0 is no effect, 100 is complete control
Outline: as §1

[8] = system: barnyardgrass (Echinochloa crus-galli); assay: Test A postemergence, visual injury rating; conditions: 0 is no effect, 100 is complete control
Outline: as §1

[9] = system: blackgrass (Alopecurus myosuroides); assay: Test A postemergence, visual injury rating; conditions: 0 is no effect, 100 is complete control
Outline: as §1

[10] = system: corn (Zea mays); assay: Test A postemergence, visual injury rating; conditions: 0 is no effect, 100 is complete control
Outline: as §1

[11] = system: galium (catchweed bedstraw, Galium aparine); assay: Test A postemergence, visual injury rating; conditions: 0 is no effect, 100 is complete control
Outline: as §1

[12] = system: giant foxtail (Setaria faberii); assay: Test A postemergence, visual injury rating; conditions: 0 is no effect, 100 is complete control
Outline: as §1

[13] = system: kochia (Kochia scoparia); assay: Test A postemergence, visual injury rating; conditions: 0 is no effect, 100 is complete control
Outline: as §1

[14] = system: pigweed (Amaranthus retroflexus); assay: Test A postemergence, visual injury rating; conditions: 0 is no effect, 100 is complete control
Outline: as §1

[15] = system: ragweed (common ragweed, Ambrosia elatior); assay: Test A postemergence, visual injury rating; conditions: 0 is no effect, 100 is complete control
Outline: as §1

[16] = system: wheat (Triticum aestivum); assay: Test A postemergence, visual injury rating; conditions: 0 is no effect, 100 is complete control
Outline: as §1

[17] = system: barnyardgrass (Echinochloa crus-galli); assay: Test B flooded paddy test, plant response rating; conditions: 250 g ai/ha; Flood; scale of 0 to 100 where 0 is no effect and 100 is complete control; 13 to 15 days
Outline: (§2)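 Greenhouse pots flooded to 3 cm above soil at time of treatment received compound via the water, which stayed at that level.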

[18] = system: ducksalad (Heteranthera limosa); assay: Test B flooded paddy test, plant response rating; conditions: 250 g ai/ha; Flood; scale of 0 to 100 where 0 is no effect and 100 is complete control; 13 to 15 days
Outline: as §2

[19] = system: rice (Oryza sativa); assay: Test B flooded paddy test, plant response rating; conditions: 250 g ai/ha; Flood; scale of 0 to 100 where 0 is no effect and 100 is complete control; 13 to 15 days
Outline: as §2

[20] = system: sedge, umbrella (small-flower umbrella sedge, Cyperus difformis); assay: Test B flooded paddy test, plant response rating; conditions: 250 g ai/ha; Flood; scale of 0 to 100 where 0 is no effect and 100 is complete control; 13 to 15 days
Outline: as §2

O=C(OCC(F)(F)F)c1c(Br)cccc1Oc1ncc(Cl)cn1 [Compound 35]
Ryegrass, Italian plant response rating ([1]; 125 g ai/ha): 0
Ryegrass, Italian plant response rating ([1]; 500 g ai/ha): 30
Barnyardgrass plant response rating ([2]; 125 g ai/ha): 70
Barnyardgrass plant response rating ([2]; 500 g ai/ha): 90
Foxtail, Giant plant response rating ([3]; 125 g ai/ha): 100
Foxtail, Giant plant response rating ([3]; 500 g ai/ha): 100
Kochia plant response rating ([4]; 125 g ai/ha): 30
Kochia plant response rating ([4]; 500 g ai/ha): 80
Pigweed plant response rating ([5]; 125 g ai/ha): 100
Pigweed plant response rating ([5]; 500 g ai/ha): 100
Ragweed plant response rating ([6]; 125 g ai/ha): 0
Ragweed plant response rating ([6]; 500 g ai/ha): 0
Ryegrass, Italian plant response rating (0 to 100 scale) ([7]; 125 g ai/ha): 0
Ryegrass, Italian plant response rating (0 to 100 scale) ([7]; 500 g ai/ha): 40
Barnyardgrass plant response rating (0 to 100 scale) ([8]; 125 g ai/ha): 10
Barnyardgrass plant response rating (0 to 100 scale) ([8]; 500 g ai/ha): 80
Blackgrass plant response rating (0 to 100 scale) ([9]; 125 g ai/ha): 40
Blackgrass plant response rating (0 to 100 scale) ([9]; 500 g ai/ha): 80
Corn plant response rating (0 to 100 scale) ([10]; 125 g ai/ha): 20
Corn plant response rating (0 to 100 scale) ([10]; 500 g ai/ha): 30
Galium plant response rating (0 to 100 scale) ([11]; 125 g ai/ha): 60
Galium plant response rating (0 to 100 scale) ([11]; 500 g ai/ha): 100
Foxtail, Giant plant response rating (0 to 100 scale) ([12]; 125 g ai/ha): 40
Foxtail, Giant plant response rating (0 to 100 scale) ([12]; 500 g ai/ha): 100
Kochia plant response rating (0 to 100 scale) ([13]; 125 g ai/ha): 90
Kochia plant response rating (0 to 100 scale) ([13]; 500 g ai/ha): 100
Pigweed plant response rating (0 to 100 scale) ([14]; 125 g ai/ha): 100
Pigweed plant response rating (0 to 100 scale) ([14]; 500 g ai/ha): 100
Ragweed plant response rating (0 to 100 scale) ([15]; 125 g ai/ha): 0
Ragweed plant response rating (0 to 100 scale) ([15]; 500 g ai/ha): 0
Wheat plant response rating (0 to 100 scale) ([16]; 125 g ai/ha): 0
Wheat plant response rating (0 to 100 scale) ([16]; 500 g ai/ha): 20
Plant response rating, Barnyardgrass [17]: 0
Plant response rating, Ducksalad [18]: 50
Plant response rating, Rice [19]: 0
Plant response rating, Sedge, Umbrella [20]: 60
